From US12637454B2, “Heterocyclic monoacylglycerol lipase (MAGL) inhibitors” (Hoffmann-La Roche Inc., priority 2019, dated 2026)

The compounds below were run against T1, MAGL (Homo sapiens, UniProt Q99685) (assay: 2-AG assay (MAGL inhibitory activity, hydrolysis of 2-arachidonoylglycerol followed by mass spectrometry)). Conditions: 50 pM MAGL, 8 μM 2-arachidonoylglycerol, 15 min preincubation, 30 min incubation at RT.
T1 sequence (Q99685 1-303): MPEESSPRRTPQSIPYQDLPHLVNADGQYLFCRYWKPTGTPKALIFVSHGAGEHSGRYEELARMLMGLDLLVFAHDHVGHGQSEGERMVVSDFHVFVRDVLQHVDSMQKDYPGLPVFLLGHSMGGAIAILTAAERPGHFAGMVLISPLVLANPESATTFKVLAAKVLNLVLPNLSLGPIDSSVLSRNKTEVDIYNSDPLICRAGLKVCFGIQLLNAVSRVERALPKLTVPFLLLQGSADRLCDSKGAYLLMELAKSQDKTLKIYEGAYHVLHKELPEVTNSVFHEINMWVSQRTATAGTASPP
Assay type: biochemical
Method: Compounds were profiled for MAGL inhibitory activity by determining the enzymatic activity by following the hydrolysis of the natural substrate 2-arachidonoylglycerol (2-AG) resulting in arachidonic acid, which can be followed by mass spectrometry. This assay is hereinafter abbreviated “2-AG assay”.
The 2-AG assay was carried out in 384 well assay plates (PP, Greiner Cat #784201) in a total volume of 20 μL. Compound dilutions were made in 100% DMSO (VWR Chemicals 23500.297) in a polypropylene plate in 3-fold dilution steps to give a final concentration range in the assay from 12.5 μM to 0.8 pM. 0.25 μL compound dilutions (100% DMSO) were added to 9 μL MAGL in assay buffer (50 mM TRIS (GIBCO, 15567-027), 1 mM EDTA (Fluka, 03690-100 mL), 0.01% (v/v) Tween. After shaking, the plate was incubated for 15 min at RT. To start the reaction, 10 μL 2-arachidonoylglycerol in assay buffer was added. The final concentrations in the assay was 50 pM MAGL and 8 μM 2-arachidonoylglyerol. After shaking and 30 min incubation at RT, the reaction was quenched by the addition of […] of ACN containing 4 μM of d8-arachidonic acid. The amount of arachidonic acid was traced by an online SPE system (Agilent Rapidfire) coupled to a triple quadrupole mass spectrometer (Agilent 6460). A C18 SPE cartridge (G9205A) was used in an ACN/water liquid setup. The mass spectrometer was operated in negative electrospray mode following the mass transitions 303.1→259.1 for arachidonic acid and 311.1→267.0 for d8-arachidonic acid. The activity of the compounds was calculated based on the ratio of intensities [arachidonic acid/d8-arachidonic acid].

Compound	IC50 [nM]
O=C(c1cccc(O)c1Cl)N1CCN2C[C@@](O)(c3ccc(Cl)cc3)CC[C@@H]2C1 [Example 33, [(7S,9aR)-7-(4-chlorophenyl)-7-hydroxy-3,4,6,8,9,9a-hexahydro-1H-pyrido[1,2-a]pyrazin-2-yl]-(2-chloro-3-hydroxyphenyl)methanone]	159
4-[(E)-2-[3-[(7R,9aR)-7-(4-Chlorophenyl)-1,3,4,6,7,8,9,9a-octahydropyrido[1,2-a]pyrazine-2-carbonyl]-2-bromo-phenyl]vinyl]-N-methyl-benzamide and 3-[(E)-2-[4-[(7R,9aR)-7-(4-chlorophenyl)-1,3,4,6,7,8,9,9a-octahydropyrido[1,2-a]pyrazine-2-carbonyl]phenyl]vinyl]-2-bromo-N-methyl-benzamide [Example 31]	3.72
Cn1c(Cl)c(C(=O)N2CCN3C[C@](O)(c4ccc(Cl)cc4)CC[C@H]3C2)ccc1=O [Example 11, 5-[(7R,9aS)-7-(4-chlorophenyl)-7-hydroxy-3,4,6,8,9,9a-hexahydro-1H-pyrido[1,2-a]pyrazine-2-carbonyl]-6-chloro-l-methylpyridin-2-one]	775
O=C(c1cccc(N2CCC23COC3)c1Cl)N1CCN2C[C@@](O)(c3ccc(Cl)cc3)CC[C@@H]2C1 [Example 36, [(7S,9aR)-7-(4-chlorophenyl)-7-hydroxy-3,4,6,8,9,9a-hexahydro-1H-pyrido[1,2-a]pyrazin-2-yl]-[2-chloro-3-(6-oxa-1-azaspiro[3.3]heptan-1-yl)phenyl]methanone]	76
O=C(c1cccc(N2CCOC2=O)c1Cl)N1CCN2C[C@@](O)(c3ccc(Cl)cc3)CC[C@@H]2C1 [Example 13, 3-[3-[(7S,9aR)-7-(4-chlorophenyl)-7-hydroxy-3,4,6,8,9,9a-hexahydro-1H-pyrido[1,2-a]pyrazine-2-carbonyl]-2-chlorophenyl]-1,3-oxazolidin-2-one]	1190
COc1cccc(C(=O)N2CCN3C[C@@](O)(c4ccc(F)c(Cl)c4)CC[C@@H]3C2)c1Cl [Example 1, [(7S,9aR)-7-(3-Chloro-4-fluorophenyl)-7-hydroxy-3,4,6,8,9,9a-hexahydro-1H-pyrido[1,2-a]pyrazin-2-yl]-(2-chloro-3-methoxyphenyl)methanone]	4.48
O=C(c1cccc(N2CC(O)C2)c1Cl)N1CCN2C[C@@](O)(c3ccc(Cl)cc3)CC[C@@H]2C1 [Example 9, [(7S,9aR)-7-(4-chlorophenyl)-7-hydroxy-3,4,6,8,9,9a-hexahydro-1H-pyrido[1,2-a]pyrazin-2-yl]-[2-chloro-3-(3-hydroxyazetidin-1-yl)phenyl]methanone]	16.2
O=C(c1cccc(N2CC(O)C2)c1Cl)N1CCN2C[C@@](O)(c3ccc(F)c(Cl)c3)CC[C@@H]2C1 [Example 40]	6.91
O=C(c1cccc(F)c1Cl)N1CCN2C[C@](O)(c3ccc(C(F)(F)F)cn3)CC[C@H]2C1 [Example 42, [(7S,9aS)-7-hydroxy-7-[5-(trifluoromethyl)pyridin-2-yl]-3,4,6,8,9,9a-hexahydro-1H-pyrido[1,2-a]pyrazin-2-yl]-(2-chloro-3-fluorophenyl)methanone]	4820
O=C(c1cccc(N2CC(O)C2)c1F)N1CCN2C[C@@](O)(c3ccc(F)c(Cl)c3)CC[C@@H]2C1 [Example 39, [(7S,9aR)-7-(3-chloro-4-fluorophenyl)-7-hydroxy-3,4,6,8,9,9a-hexahydro-1H-pyrido[1,2-a]pyrazin-2-yl]-[2-fluoro-3-(3-hydroxyazetidin-1-yl)phenyl]methanone]	38.5
CC(C)(C)OC(=O)Nc1ccc(/C=C/c2cccc(C(=O)N3CCN4C[C@@H](c5ccc(Cl)cc5)CC[C@@H]4C3)c2Br)cc1 [Example 29]	7.62
O=C(c1cccc(-c2c[nH]nc2F)c1Cl)N1CCN2C[C@](O)(c3ccc(Cl)cc3)CC[C@H]2C1 [Example 6, [(7R,9aS)-7-(4-chloropheny1)-7-hydroxy-3,4,6,8,9,9a-hexahydro-1H-pyrido[1,2-a]pyrazin-2-yl]-[2-chloro-3-(3-fluoro-1H-pyrazol-4-yl)phenyl]methanone]	17.2
O=C(c1cccc(-c2ccn[nH]2)c1Cl)N1CCN2C[C@](O)(c3ccc(Cl)cc3)CC[C@H]2C1 [Example 4, [(7R,9aS)-7-(4-chlorophenyl)-7-hydroxy-3,4,6,8,9,9a-hexahydro-1H-pyrido[1,2-a]pyrazin-2-yl]-[2-chloro-3-(1H-pyrazol-5-yl)phenyl]methanone]	76.3
O=C(c1cccc(N2CC(O)C2)c1F)N1CCN2C[C@@](O)(c3ccc(Cl)cc3)CC[C@@H]2C1 [Example 10]	58.2

The next lines start with the values.

IC50 [nM]	Compound
14.2	O=C(c1cccc(-c2ncsn2)c1Cl)N1CCN2C[C@@](O)(c3ccc(F)c(Cl)c3)CC[C@@H]2C1 [Example 58, [(7S,9aR)-7-(3-chloro-4-fluorophenyl)-7-hydroxy-3,4,6,8,9,9a-hexahydro-1H-pyrido[1,2-a]pyrazin-2-yl]-[2-chloro-3-(1,2,4-thiadiazol-3-yl)phenyl]methanone]
172	O=C(c1cncc(-c2cc[nH]n2)c1Cl)N1CCN2C[C@@](O)(c3ccc(Cl)cc3)CC[C@@H]2C1 [Example 66, [(7S,9aR)-7-(4-chlorophenyl)-7-hydroxy-3,4,6,8,9,9a-hexahydro-1H-pyrido[1,2-a]pyrazin-2-yl]-[4-chloro-5-(1H-pyrazol-3-yl)pyridin-3-yl]methanone]
14.6	O=C(c1cccc(-c2ccsn2)c1Cl)N1CCN2C[C@@](O)(c3ccc(Cl)cc3)CC[C@@H]2C1 [Example 67, [(7S,9aR)-7-(4-chlorophenyl)-7-hydroxy-3,4,6,8,9,9a-hexahydro-1H-pyrido[1,2-a]pyrazin-2-yl]-[2-chloro-3-(1,2-thiazol-3-yl)phenyl]methanone]
11.2	COc1cccc(C(=O)N2CCN3C[C@@](O)(c4ccc(F)c(F)c4)CC[C@@H]3C2)c1Cl [Example 59, [(7S,9aR)-7-(3,4-difluorophenyl)-7-hydroxy-3,4,6,8,9,9a-hexahydro-1H-pyrido[1,2-a]pyrazin-2-yl]-(2-chloro-3-methoxyphenyl)methanone]
14	O=C(c1cccc(-c2ccn[nH]2)c1F)N1CCN2C[C@@](O)(c3ccc(F)c(F)c3)CC[C@@H]2C1 [Example 61, [(7S,9aR)-7-(3,4-difluorophenyl)-7-hydroxy-3,4,6,8,9,9a-hexahydro-1H-pyrido[1,2-a]pyrazin-2-yl]-[2-fluoro-3-(1H-pyrazol-5-yl)phenyl]methanone]
68.4	O=C(c1cccc2c1CCN2)N1CCN2C[C@@](O)(c3ccc(F)c(Cl)c3)CC[C@@H]2C1 [Example 65, [(7S,9aR)-7-(3-chloro-4-fluorophenyl)-7-hydroxy-3,4,6,8,9,9a-hexahydro-1H-pyrido[1,2-a]pyrazin-2-yl]-(2,3-dihydro-1H-indol-4-yl)methanone]
3490	COc1cccc(C(=O)N2CCN3CC(O)(c4ccc(C(F)(F)F)nc4)CCC3C2)c1Cl (racemic) [Example 72, (2-chloro-3-methoxyphenyl)-[rac-(7R,9aS)-7-hydroxy-7-[6-(trifluoromethyl)pyridin-3-yl]-3,4,6,8,9,9a-hexahydro-1H-pyrido[1,2-a]pyrazin-2-yl]methanone]
20.5	O=C(c1cccc(-c2[nH]ncc2F)c1F)N1CCN2C[C@@](O)(c3ccc(F)c(F)c3)CC[C@@H]2C1 [Example 62, [(7S,9aR)-7-(3,4-difluorophenyl)-7-hydroxy-3,4,6,8,9,9a-hexahydro-1H-pyrido[1,2-a]pyrazin-2-yl]-[2-fluoro-3-(4-fluoro-1H-pyrazol-5-yl)phenyl]methanone]
15.4	O=C(c1cccc(N2CC[C@@H](O)C2)c1Cl)N1CCN2C[C@@](O)(c3ccc(F)c(Cl)c3)CC[C@@H]2C1 [Example 44, [(7S,9aR)-7-(3-chloro-4-fluorophenyl)-7-hydroxy-3,4,6,8,9,9a-hexahydro-1H-pyrido[1,2-a]pyrazin-2-yl]-[2-chloro-3-[(3R)-3-hydroxypyrrolidin-1-yl]phenyl]methanone]
13.4	O=C(c1cccc(-c2[nH]ncc2F)c1Cl)N1CCN2C[C@@](O)(c3ccc(C(F)(F)F)cn3)CC[C@@H]2C1 [Example 64]
994	Cc1c(C(=O)N2CCN3C[C@@](O)(c4ccc(Cl)cc4)CC[C@@H]3C2)cncc1-c1cc[nH]n1 [Example 70, [(7S,9aR)-7-(4-chlorophenyl)-7-hydroxy-3,4,6,8,9,9a-hexahydro-1H-pyrido[1,2-a]pyrazin-2-yl]-[4-methyl-5-(1H-pyrazol-3-yl)pyridin-3-yl]methanone]
